Experimental data as given in patent publication US7064139B2, “Method for treating retroviral infections” (Uniroyal Chemical Company, Inc., priority 2001, dated 2006).
In brackets after ≈: the same amount, converted by molar mass. Where two headings read alike, the source gives them in different places.

What was measured:
Davis strain CMV = assay: Reduction of CMV-induced cytopathicity in HEL cells; assay type: cell-based, human cytomegalovirus (HCMV); details: for EC50: read-out: Antiviral EC50 (ug/ml) Davis strain CMV; for Antiviral % Inhibition Davis strain CMV: estimate of percent protection at the concentration in the previous column
Description: Confluent HEL cells grown in […] microtiter plates were inoculated with CMV at an input of 100 PFU (plaque forming units) per well. After a one to two hour incubation period, residual virus was removed and the infected cells were further incubated with MEM (Minimal Essential Medium) (supplemented with 2% inactivated Fetal Calf Serum (FCS), […], and 0.3% sodium bicarbonate) containing varying concentrations of the test compounds. Antiviral activity was expressed as EC50 (50% effective concentration), or test compound concentration required to reduce virus-induced cytopathicity after seven days by 50% compared to the untreated control.
In some cases, the compounds had considerable cytotoxicity against HEL cells, which made determination of the EC50 difficult. In these cases, an estimate of the percent protection at the compound concentration indicated in the previous columns is given.

HIV-2 (ROD) = assay: Inhibition of HIV-2 syncytium formation in CEM cells; assay type: cell-based; details: for HIV-2 % Protection: protection of CEM cells against virus-induced cytopathicity at the concentration in the previous column; for EC50: Human immunodeficiency virus 2, CCRF-CEM, read-out: EC50 (ug/ml) HIV-2
Excerpt: (§1) The cell type used to determine activity of the compounds of the invention herein, i.e., the test compounds, against HIV was human T-lymphoblast (CEM) cells obtained from the American Tissue Cell Culture Collection (Rockville, Md.). HIV-1 (IIIB) was originally obtained from the culture of persistently HIV-1 infected H9 cells and was provided by R. C. Gallo and M. Popovic (National Cancer Institute, National Institutes of Health, Bethesda, Md.). HIV-2 (ROD) was originally obtained from L. M. Montagnier (Pasteur Institute, Paris, France).
(§2) To determine the antiviral activity of the test compounds, CEM cells were suspended at a cell density of approximately 300,000 cells per ml of culture medium and infected with approximately 100 CCID50 (100 CCID50 being the 50% cell culture infective dose) of HIV-1 (IIIB) or HIV-2 (ROD)). Then 100 μl of the infected cell suspensions was added to 200 μl micro titer plate wells containing 100 μl of appropriate serial (5-fold) dilutions of the test compounds. The inhibitory effect of the test compounds on HIV-1 or HIV-2 syncytium formation in CEM cells was examined microscopically on day four post infection.
(§3) In these cases, the percent protection of the cells against virus-induced cytopathicity by the test compounds at the indicated compound concentration in the previous column is given.

HIV-1 (IIIB) = assay: microbe, parasite or virus in culture; assay type: cell-based; details: for HIV-1 % Protection: protection of CEM cells against virus-induced cytopathicity at the concentration in the previous column; for EC50: Human immunodeficiency virus 1, IIIB, CCRF-CEM, read-out: EC50 (ug/ml) HIV-1
Excerpt: as §1, §2, §3

[1] = HEL cells, virus-induced cytopathicity after seven days
[2] = CEM cells, syncytium formation, day four post infection
[3] = Human betaherpesvirus 5, 168 h, HEL cells, virus-induced cytopathicity after seven days

| SMILES | Antiviral EC50 (ug/ml) Davis strain CMV (Davis strain CMV; [1]) [µg/mL] | EC50 (ug/ml) HIV-2 (HIV-2 (ROD); [2]) | EC50 (ug/ml) HIV-1 (HIV-1 (IIIB); [2]) | HIV-2 % Protection (HIV-2 (ROD)) [%] | HIV-1 % Protection (HIV-1 (IIIB)) [%] | Antiviral % Inhibition Davis strain CMV (Davis strain CMV; HEL cells) [%] | further results |
| --- | --- | --- | --- | --- | --- | --- | --- |
| Cc1ccc(C)c(C(C)S(=O)(=O)c2c(C)ccc[n+]2[O-])c1 (stereo not drawn) [Compound 71, 2-[1-(2,5-Dimethylphenyl)ethylsulfonyl]-3-methylpyridine N-oxide] |  |  |  | 0.0 |  |  | EC50 (Davis strain CMV; [3]): 3.2 µg/mL (≈ 10.5 µM); EC50 (HIV-2 (ROD); [2]): > 20 µg/mL; EC50 (HIV-1 (IIIB); [2]): 0.05 µg/mL (≈ 0.164 µM) |
| Cc1ccc(C)c(CSc2c(Cl)ccc[n+]2[O-])c1 [Compound 133, 3-Chloro-2-[[(2,5-dimethylphenyl)methyl]thio]pyridine 1-oxide] |  |  |  | 0.0 |  |  | EC50 (Davis strain CMV; Human betaherpesvirus 5, HEL, 168 h): 25 µg/mL (≈ 89.4 µM); EC50 (HIV-2 (ROD)): > 20 µg/mL; EC50 (HIV-1 (IIIB)): 0.14 µg/mL (≈ 0.5 µM) |
| Cc1c(Cl)c(Cl)c(CS(=O)(=O)c2cccc[n+]2[O-])c(Cl)c1Cl [Compound 49] | 5.0 | ≧.8 ug/ml | ≧.8 ug/ml | 37.5 | 37.5 |  |  |
| O=S(=O)(Cc1cccs1)c1cccc[n+]1[O-] [Compound 8] | 11.0 | >20 µg/mL | >20 µg/mL | 0.0 | 0.0 |  |  |
| Cc1cc(C)c(C[S+]([O-])c2cccc[n+]2[O-])c(C)c1 (stereo not drawn) [Compound 88, 2-(2,4,6-trimethylbenzylsulfinyl)-pyridine-N-oxide] |  |  |  |  |  |  | EC50 (Davis strain CMV; [3]): 25 µg/mL (≈ 90.8 µM); EC50 (HIV-2 (ROD); [2]): 1.5 µg/mL (≈ 5.45 µM); EC50 (HIV-1 (IIIB); [2]): 1.5 µg/mL (≈ 5.45 µM) |
| COc1ccc([N+](=O)[O-])cc1CS(=O)(=O)c1cccc[n+]1[O-] [Compound 20] | 13.0 | 13.0 µg/mL (≈ 40.1 µM) | 7.00 µg/mL (≈ 21.6 µM) |  |  |  |  |
| COc1ccc(C[S+]([O-])c2cccc[n+]2[O-])cc1OC (stereo not drawn) [Compound 98] | 10.0 | >0.8 µg/mL | >.8 µg/mL | 0.0 | 0.0 |  |  |
| [O-][n+]1cccc(Cl)c1SCc1ccccc1 [Compound 132] | >50 | >20.00 µg/mL | 2.40 µg/mL (≈ 9.53 µM) | 0.0 |  | 0.0 |  |
| CC(C)c1ccc(CS(=O)(=O)c2cccc[n+]2[O-])cc1 [Compound 58] | 5.0 | 2.6 µg/mL (≈ 8.92 µM) | 3.40 µg/mL (≈ 11.7 µM) |  |  |  |  |
| Cc1ccc(C)c(C(C)S(=O)(=O)c2c(Cl)ccc[n+]2[O-])c1 (racemic) [Compound 124] | >5 | >0.80 µg/mL | >.8 µg/mL | 0.0 | 0.0 | 10.0 |  |
| O=S(=O)(Cc1c2ccccc2cc2ccccc12)c1cccc[n+]1[O-] [Compound 51, 2[1(9-anthryl)methylsulfonyl]pyridine-N-oxide] |  |  |  | 0.0 | 0.0 |  | EC50 (Davis strain CMV; [3]): 1.3 µg/mL (≈ 3.72 µM); EC50 (HIV-2 (ROD); [2]): > 0.8 µg/mL; EC50 (HIV-1 (IIIB); [2]): > 0.8 µg/mL |
| Cc1ccc(CS(=O)(=O)c2cccc[n+]2[O-])cc1[N+](=O)[O-] [Compound 67] | >50 | 2.4 µg/mL (≈ 7.78 µM) | 2.30 µg/mL (≈ 7.46 µM) |  |  | 20.0 |  |
| Nc1ccn(C[C@@H](CO)OCP(=O)(O)O)c(=O)n1 [S-HPMPC, reference compound] | 0.3 |  |  |  |  |  |  |
| Nc1nc2c(ncn2COC(CO)CO)c(=O)[nH]1 [DHPG, reference compound] | 1 |  |  |  |  |  |  |

Further lines, with some results ahead:

| Antiviral EC50 (ug/ml) Davis strain CMV (Davis strain CMV; [1]) [µg/mL] | EC50 (ug/ml) HIV-2 (HIV-2 (ROD); [2]) | EC50 (ug/ml) HIV-1 (HIV-1 (IIIB); [2]) | SMILES | HIV-2 % Protection (HIV-2 (ROD)) [%] | HIV-1 % Protection (HIV-1 (IIIB)) [%] | Antiviral % Inhibition Davis strain CMV (Davis strain CMV; HEL cells) [%] | further results |
| --- | --- | --- | --- | --- | --- | --- | --- |
| 12.5 | >20.00 µg/mL | >20 µg/mL | COc1ccc(CS(=O)(=O)c2cc(C(C)(C)C)cc[n+]2[O-])cc1 [Compound 135] | 0.0 | 0.0 |  |  |
| >5 | 2.9 µg/mL (≈ 8.82 µM) | 2.90 µg/mL (≈ 8.82 µM) | O=[N+]([O-])c1ccc(CS(=O)(=O)c2cccc[n+]2[O-])c(Cl)c1 [Compound 69] |  |  | 20.0 |  |
| >50 | >100.0 µg/mL | 4.00 µg/mL (≈ 13.7 µM) | Cc1ccc(C)c(CS(=O)(=O)c2cccc(C)[n+]2[O-])c1 [Compound 72] | 0.0 |  | 0.0 |  |
| 16.0 | ≧20 ug/ml | 10.00 µg/mL (≈ 22.3 µM) | Cc1cc(CS(=O)(=O)c2cccc[n+]2[O-])c(C)cc1CS(=O)(=O)c1cccc[n+]1[O-] [Compound 25] | 37.5 |  |  |  |
| >5 | >4.0 µg/mL | >4 µg/mL | Cc1cc([N+](=O)[O-])ccc1CS(=O)(=O)c1c(C)ccc[n+]1[O-] [Compound 118] | 0.0 |  | 10.0 |  |
| >20 | 7.0 µg/mL (≈ 26.2 µM) | 11.00 µg/mL (≈ 41.2 µM) | O=S(=O)(Cc1ccc(F)cc1)c1cccc[n+]1[O-] [Compound 29] |  |  | 10.0 |  |
| 43.0 | >20.00 µg/mL | >20 µg/mL | Cc1ccc[n+]([O-])c1S(=O)(=O)Cc1c(Cl)cccc1Cl [Compound 139] | 0.0 | 0.0 |  |  |
| 4.7 | >4.0 µg/mL | 1.50 µg/mL (≈ 5.6 µM) | [O-][n+]1cccc(Cl)c1[S+]([O-])Cc1ccccc1 (stereo not drawn) [Compound 136] | 0.0 |  |  |  |
| >50 | 50.0 µg/mL (≈ 214 µM) | 30.00 µg/mL (≈ 129 µM) | O=S(=O)(Cc1ccccc1)c1ccccn1 [Compound 143] |  |  | 0.0 |  |
|  | >20 µg/mL | 1.0 µg/mL (≈ 3.86 µM) | Cc1ccc(C)c(CSc2c(C)ccc[n+]2[O-])c1 [Compound 164] | 0.0 |  |  |  |
| 28.0 | >20.00 µg/mL | >20 µg/mL | Cc1ccc[n+]([O-])c1SCc1c(Cl)cccc1Cl [Compound 137] | 0.0 | 0.0 |  |  |
| 4.3 | >0.8 µg/mL | >.8 µg/mL | Cc1ccc(C)c(C(C)[S+]([O-])c2cccc[n+]2[O-])c1 (stereo not drawn) [Compound 103] | 0.0 | 0.0 |  |  |
| 4.1 | ≧4 ug/ml | >4 µg/mL | CC(C)c1ccc(C(C)C)c(C[S+]([O-])c2cccc[n+]2[O-])c1 (stereo not drawn) [Compound 95] | 37.5 |  |  |  |
| 37.0 |  | ≧20 ug/ml | Cc1ccccc1C[S+]([O-])c1cccc[n+]1[O-] (stereo not drawn) [Compound 90] |  | 37.5 |  |  |
| >20 |  | 9.00 µg/mL (≈ 30.7 µM) | O=S(=O)(Cc1ccc2c(c1)OCO2)c1cccc[n+]1[O-] [Compound 39] |  |  | 30.0 |  |
